Reference: patent publication US5998438A, “5-cyclo indole compounds” (Allelix Biopharmaceuticals, Inc., priority 1997, dated 1999)
Like-named read-outs stand apart in the source and are kept apart here.

Molecular target: T1, 5-HT1D-like receptor (Oryctolagus cuniculus, UniProt P49144)
T1 construct: Ring segments of the vein (4-5 mm in length) were cut and the endothelium gently removed; from tissue; host or cells: saphenous vein rings (endothelium removed) of male New Zealand White rabbits
Assay: Agonist assay: contraction of rabbit isolated saphenous vein (5-HT1D-like receptor agonist activity)
Parameters: species or system rabbit (male New Zealand White)

[1] = rabbit isolated saphenous vein ring segments, concentration causing 50% of the maximum contraction effected by the compound, with prazosin, idazoxan and indomethacin, 37° C., pH 7.4, read-out: EC50

T1 sequence (P49144 whole entry): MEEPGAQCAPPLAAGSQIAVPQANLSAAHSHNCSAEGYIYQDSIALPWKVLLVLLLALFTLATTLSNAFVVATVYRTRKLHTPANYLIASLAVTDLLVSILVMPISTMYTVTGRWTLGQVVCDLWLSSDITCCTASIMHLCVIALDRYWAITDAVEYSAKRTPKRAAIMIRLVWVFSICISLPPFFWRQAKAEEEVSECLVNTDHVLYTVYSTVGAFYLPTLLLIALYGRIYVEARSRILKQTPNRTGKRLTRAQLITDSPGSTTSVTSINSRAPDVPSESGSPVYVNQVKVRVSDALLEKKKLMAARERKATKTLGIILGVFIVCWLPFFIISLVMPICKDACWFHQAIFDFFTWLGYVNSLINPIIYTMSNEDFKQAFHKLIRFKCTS

| Structure (SMILES) | EC50 | EC50 [1] |
| --- | --- | --- |
| CN(C)CCc1c[nH]c2ccc(C3=CCCCC3)cc12 [Example 9a, 5-(Cyclohex-1-en-1-yl)-3-[2-(N,N-dimethylamino)ethyl]-1H-indole] | 960 nM | – |
| CN(C)CCc1c[nH]c2ccc(C3CCCCO3)cc12 (centres unmarked) [Example 9b, 3-[2-(N,N-Dimethylamino)ethyl]-5-(tetrahydropyran-2-yl)-1H-indole] | 160 nM | – |
| C1=C(c2ccc3[nH]cc(CCN4CCCC4)c3c2)CCN(Cc2ccccc2)C1 [Example 15, 5-(1-Aza-1-benzylcyclohex-3-en-4-yl)-3-(2-pyrrolidinylethyl)-1H-indole] | – | 220 nM |
| CN(C)CCc1c[nH]c2ccc(C3CCCCC3)cc12 [Example 17a, 5-Cyclohexyl-3-[2-(N,N-dimethylamino)ethyl]-1H-indole] | 250 nM | – |
| CN1CCC[C@H]1Cc1c[nH]c2ccc(C3CCN(C(=O)OC(C)(C)C)CC3)cc12 [Example 17d, (S)-5-(1-Aza-1-tert-butoxycarbonylcyclohex-4-yl)-3-[(N-methylpyrrolidin-2-yl)methyl]-1H-indole] | – | 750 nM |
